The values that follow come from US6774121B1, “Phospholipid prodrugs of anti-proliferative drugs” (D-Pharm, Ltd., priority 1999, dated 2004).

A word on the EC50: it is the concentration giving half of the maximal effect.

Like-named read-outs stand apart in the source and are kept apart here.

For series [1], the system named is human leukemia cell line CCRF-CEM (CEM). Put plainly: MTT cell growth inhibition, CEM cells (Example 4). It is filed as cell-based. Particulars: Homo sapiens, CCRF-CEM; 72 hours, MTT assay; read-out: EC50, nMol CEM. As for the experimental part: (§1) A series of methotrexate derivatives were screened for their inhibitory effect on cell growth. Three tumor cell lines were used for this screen: i) human leukemia cell line CCRF-CEM which is MTX-sensitive (herein denoted as CEM), ii) a mutant of CEM cell line which is MTX-resistant due to a mutation in the RFC (herein denoted as CEM-MTX; provided by Dr. […], Technion, Israel), and iii) rat C6 glioma cell line. Cells were seeded at a density of 10^4 cells/ml in RPMI medium supplemented with 10% FCS in 96 well plates. The cultured cells were incubated, during their linear growth phase, in the presence and absence of various concentrations of MTX derivatives. The tested compounds were prepared as 1 mM stock in absolute ethanol or DMSO and were diluted into the medium. The highest vehicle presence in the assay was 5% of the vehicle. After 72 hours at 37° C. the cytotoxic effect on the cells was estimated by using the colorimetric MTT assay (Mosmann (1983) J. Immunol Methods 65: 55-63) that measures mitochondrial reductase activity and serves for quantitative assessment of cellular viability. […] The EC50 values were calculated from dose response curves for each tested compound.

For series [2], the system named is CEM-MTX (MTX-resistant mutant of CEM, mutation in the RFC). Briefly: MTT cell growth inhibition, MTX-resistant CEM-MTX cells (Example 4). It is filed as cell-based, human. To be noted: Homo sapiens; 72 hours, MTT assay; read-out: EC50, nMol CEM-MTX. How it is done:
A series of methotrexate derivatives were screened for their inhibitory effect on cell growth. Three tumor cell lines were used for this screen: i) human leukemia cell line CCRF-CEM which is MTX-sensitive (herein denoted as CEM), ii) a mutant of CEM cell line which is MTX-resistant due to a mutation in the RFC (herein denoted as CEM-MTX; provided by Dr. Y. Assraf, Technion, Israel), and iii) rat C6 glioma cell line.
Cells were seeded at a density of 10^4 cells/ml in RPMI medium supplemented with 10% FCS in 96 well plates. The cultured cells were incubated, during their linear growth phase, in the presence and absence of various concentrations of MTX derivatives. The tested compounds were prepared as 1 mM stock in absolute ethanol or DMSO and were diluted into the medium. The highest vehicle presence in the assay was 5% of the vehicle. After 72 hours at 37° C. the cytotoxic effect on the cells was estimated by using the colorimetric MTT assay (Mosmann (1983) J. Immunol Methods 65: 55-63) that measures mitochondrial reductase activity and serves for quantitative assessment of cellular viability. Drug concentration required for inhibiting the growth of 50% of cell population in culture over a 72 hour period incubation, is defined as EC50.
The EC50 values were calculated from dose response curves for each tested compound.
A general note: Tetrazolium dyes change colour on reduction, which living cells bring about.

The next series concerns rat C6 glioma cell line. Briefly: MTT cell growth inhibition, C6 glioma cells (Example 4). It is filed as cell-based. Particulars: Rattus norvegicus, C6 glioma; 72 hours, MTT assay; read-out: EC50, nMol C6 glioma. How it is done: as §1
In series [3] the test system is Wild type human leukemia CEM cells. Put plainly: MTT cytotoxicity with and without Leucovorin, CEM cells (Example 6). Particulars: CCRF-CEM, 72 hours. It is filed as cell-based. How it is done: (§2) Leucovorin is a reduced folate, used in chemotherapy with high doses of methotrexate for ‘rescue’ of host from toxicity.
(§3) Wild type human leukemia CEM cells or the MTX-resistant mutant cells, CEM-MTX, were plated into 96 well plates containing RPMI, 10% FCS at a concentration of 5×10^4 cells/ml. […] Leucovorin, at a final concentration of 10 μM, was added to some of the plates as indicated. The plates were incubated for 72 hours (37° C., 5% CO2) before being assayed for viability using the colorimetric MTT assay (Mosmann (1983) J. Immunol Methods 65: 55-63).

Series [4] relates to MTX-resistant mutant cells, CEM-MTX. Briefly: MTT cytotoxicity with and without Leucovorin, CEM-MTX cells (Example 6). It is filed as cell-based. Particulars: Homo sapiens, 72 hours. How it is done: as §2, §3
Another series deals with CEM. Briefly: MTT cytotoxicity on tumor cell lines, CEM (Example 8). It is filed as cell-based. Particulars: CCRF-CEM, T-cell ALL (human), 72 hours. How it is done:
(§4) Cell viability was analyzed after 72 hours incubation (37° C., 5% CO2) using the colorimetric MTT assay (Mosmann (1983) J. Immunol Methods 65: 55-63).

A further series concerns C6. Put plainly: MTT cytotoxicity on tumor cell lines, C6 (Example 8). It is filed as cell-based. Particulars: C6, Glioma (rat), 72 hours. As for the experimental part: as §4
Another series relates to Du148. Briefly: MTT cytotoxicity on tumor cell lines, Du148 (Example 8). It is filed as cell-based. Particulars: Du148, Prostate cancer (human), 72 hours. How it is done: as §4
The subject of the next series is J774. Put plainly: MTT cytotoxicity on tumor cell lines, J774 (Example 8). It is filed as cell-based. To be noted: J774, Myeloma (mouse), 72 hours. As for the experimental part: as §4
For series [5], the system named is L1210. Briefly: MTT cytotoxicity on tumor cell lines, L1210 (Example 8). It is filed as cell-based. Particulars: L1210, lymphocytic leukemia (mouse), 72 hours. As for the experimental part: as §4
Another series has as its system N87. Put plainly: MTT cytotoxicity on tumor cell lines, N87 (Example 8). It is filed as cell-based. Particulars: N87, Gastric carcinoma (human), 72 hours. How it is done: as §4
The test system of a further series is A431. Briefly: MTT cytotoxicity on tumor cell lines, A431 (Example 8). It is filed as cell-based. To be noted: A-431, A431, Epidermoid carcinoma (human), 72 hours. As for the experimental part:
as §4

The subject of a further series is T47D. Briefly: MTT cytotoxicity on tumor cell lines, T47D (Example 8). To be noted: Mammary cancer (human), 72 hours. It is filed as cell-based. How it is done: as §4
Series [6] relates to L1210. Briefly: MTT cytotoxicity, parent L1210 cells (Example 9). It is filed as cell-based. To be noted: Mus musculus.
Series [7] deals with RFC-mediated MTX-resistant cell line (L1210-MTX). Put plainly: MTT cytotoxicity, L1210-MTX cells (Example 9). It is filed as cell-based. Particulars: Mus musculus.
The test system of series [8] is L1210 murine leukemia cells. Put plainly: Survival of mice transplanted i.p. with L1210 leukemia cells. It is filed as in vivo, mouse. How it is done:
The anti-tumor effects of DP-MTX were evaluated in vivo on mice transplanted with L1210 murine leukemia cells.
Mice of strain B6D2F 1/J (stock number 100006), which are F1 cross of C57/BJ×DBA/2J, were purchased from The Jackson Laboratory (JAX Mice & Mouse Model Related Services, […], USA). Animals were allowed 10 days adjustment time at our animal care facility before initiation of the experiment.
Mice were transplanted with 1×10^6 L1210 (mouse leukemia; ATCC# CCL-219) or L1210MTX (RFC-mediated MTX resistant L1210 mutant; provided by Dr. Y. Assraf, Technion, Israel) cells by injection into the peritoneum (i.p.) (day 1). […] Another group of 8 animals were injected with vehicle solution (2% propylene-glycol, 0.2% Tween-80 in PBS) and serve as control group. […] Mice survival was monitored daily until the end of the experiment on day 21.

[9] abbreviates: 10 μM Leucovorin, read-out: EC50, nMol + 10 μM Leucovorin.
[10] abbreviates: read-out: EC50, nMol No Leucovorin.

Regarding `CN(Cc1cnc2nc(N)nc(N)c2n1)c1ccc(C(=O)N[C@@H](CCC(=O)O)C(=O)O)cc1` [MTX, Methotrexate], the EC50 in series [1] is 21 nM; in series [2], 2540 nM; in the series on rat C6 glioma cell line, 46 nM; in series [3] (setting [9]) it was 910 ± 378 nM; in [3] (setting [10]) it was 23 ± 13 nM; in series [4] (setting [9]) it was 20000 ± 12800 nM. In addition, the EC50 in series [4] (setting [10]) worked out at 2540 ± 224 nM; in the series with CEM it was 21 nM; in the series on C6, 46 nM; in the series with Du148, 29 nM; with J774, 112 nM; in the series with L1210 [5] it was 13 nM. Also, the EC50 with N87 is 13500 nM; in the series with A431, 850 nM; in the series with T47D it was 50000 nM; in the series with L1210 [6] it was 14 nM; in series [7], 1080 nM. In series [8] (3 mg/Kg MTX or molar equivalent, i.p. every two days, day 3 to 17), the “mice surviving at the end of the experiment, on day 21” value is “one”. The “mortality caused by the treatment by itself” value in series [8] (3 mg/Kg i.p.) is recorded as “no mortality”. Besides, in series [8] (3 mg/Kg i.p. every two days, day 3 to 17), the “day on which animal death started” value worked out at 15 days.
